Experiments:
Experiment in all cases: relative viability (nuclei count vs DMSO), 5 days (fraction); higher = more cells survive
[1] = compound: C1=CC2=NC=CN=C2C=C1/C=C/3\C(=O)NC(=O)S3 + CC(=O)c1c(C)c2cnc(Nc3ccc(N4CCNCC4)cn3)nc2n(C2CCCC2)c1=O [Palbociclib] (partner 0.5 µM)
Procedure, shortened: (§1)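 Relative viability equals treated-well nuclei counts divided by vehicle-well nuclei counts. Counts came from 4× images of lung cancer cell lines grown in 1536-well plates for 5 days after pin-tool dosing on the day after seeding. Dosing used one drug alone or a fixed anchor-drug dose plus five library-drug doses (not always all listed) in √10 steps, and values are medians of duplicate plates.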

BGJ398 + Palbociclib = compound: CCN1CCN(c2ccc(Nc3cc(N(C)C(=O)Nc4c(Cl)c(OC)cc(OC)c4Cl)ncn3)cc2)CC1 [BGJ398] + CC(=O)c1c(C)c2cnc(Nc3ccc(N4CCNCC4)cn3)nc2n(C2CCCC2)c1=O [Palbociclib] (partner 0.5 µM)
Procedure, shortened: as §1

[2] = compound: C1=CC2=NC=CN=C2C=C1/C=C/3\C(=O)NC(=O)S3 + CCNC(=O)c1noc(-c2cc(C(C)C)c(O)cc2O)c1-c1ccc(CN2CCOCC2)cc1 [Luminespib] (partner 0.01 µM)
Procedure, shortened: as §1

[3] = compound: C1=CC2=NC=CN=C2C=C1/C=C/3\C(=O)NC(=O)S3 + NC(=O)Nc1cc(-c2cccc(F)c2)sc1C(=O)N[C@H]1CCCNC1 [AZD7762] (partner 0.2 µM)
Procedure, shortened: as §1

| Cell Line | relative viability ([1]; first compound 0.02 µM) | relative viability ([1]; first compound 0.06325 µM) | relative viability ([1]; first compound 0.2 µM) | relative viability ([1]; first compound 0.6325 µM) | relative viability ([1]; first compound 2 µM) | relative viability (BGJ398 + Palbociclib; first compound 0.01 µM) | relative viability (BGJ398 + Palbociclib; first compound 0.03162 µM) | relative viability (BGJ398 + Palbociclib; first compound 0.1 µM) | relative viability (BGJ398 + Palbociclib; first compound 0.3162 µM) | relative viability (BGJ398 + Palbociclib; first compound 1 µM) | relative viability ([2]; first compound 0.02 µM) | relative viability ([2]; first compound 0.06325 µM) | relative viability ([2]; first compound 0.2 µM) | relative viability ([2]; first compound 0.6325 µM) | relative viability ([2]; first compound 2 µM) | relative viability ([3]; first compound 0.02 µM) | relative viability ([3]; first compound 0.2 µM) | relative viability ([3]; first compound 0.6325 µM) | relative viability ([3]; first compound 2 µM) | relative viability ([3]; first compound 0.06325 µM) |
| --- | --- | --- | --- | --- | --- | --- | --- | --- | --- | --- | --- | --- | --- | --- | --- | --- | --- | --- | --- | --- |
| SK-LU-1 | 0.376 | 0.367 | 0.374 | 0.403 | 0.411 | 0.394 | 0.47 | 0.384 | 0.339 | 0.346 | 0.203 | 0.2 | 0.19 | 0.202 | 0.221 | – | – | – | – | – |
| COR-L 105 | 0.429 | 0.423 | 0.387 | 0.349 | 0.412 | 0.47 | 0.357 | 0.445 | 0.378 | 0.383 | 0.727 | 0.997 | 0.816 | 0.695 | 0.618 | – | – | – | – | – |
| HCC-366 | 0.355 | – | 0.357 | 0.366 | 0.374 | 0.435 | 0.415 | 0.422 | 0.388 | 0.476 | – | – | – | – | – | 0.276 | 0.247 | 0.235 | 0.303 | – |
| NCI-H596 | – | – | – | – | – | – | – | – | – | – | 1.13 | 1.13 | 1.15 | 0.991 | 0.939 | 1.15 | 1.19 | 0.907 | 0.956 | 1.14 |
| NCI-H2228 | 0.591 | 0.665 | 0.79 | 0.705 | 0.606 | 0.645 | 0.885 | 0.922 | 0.638 | 0.738 | 0.157 | 0.132 | 0.152 | 0.156 | 0.137 | – | – | – | – | – |
| SK-MES-1 | 0.328 | 0.305 | 0.344 | 0.338 | 0.313 | 0.324 | 0.328 | 0.303 | 0.331 | 0.308 | 0.645 | 0.876 | 0.877 | 0.779 | 0.852 | – | – | – | – | – |
| SW 1573 | 0.464 | 0.56 | 0.346 | 0.309 | 0.33 | 0.399 | 0.419 | 0.402 | 0.423 | 0.404 | 0.492 | 0.267 | 0.222 | 0.762 | 0.208 | – | – | – | – | – |
| NCI-H661 | 0.397 | 0.453 | 0.402 | 0.434 | 0.436 | 0.422 | 0.406 | 0.384 | 0.4 | 0.398 | 0.958 | 0.961 | 0.937 | 0.943 | 1.05 | – | – | – | – | – |
| NCI-H520 | 0.211 | 0.246 | 0.251 | 0.181 | 0.201 | 0.216 | 0.19 | 0.147 | 0.142 | 0.161 | 0.204 | 0.22 | 0.257 | 0.191 | 0.248 | – | – | – | – | – |
| NCI-H2023 | 0.405 | 0.408 | 0.314 | 0.337 | 0.27 | 0.341 | 0.493 | 0.285 | 0.456 | 0.404 | 0.701 | 0.713 | 0.773 | 0.757 | 0.745 | – | – | – | – | – |
| NCI-H2009 | 0.241 | 0.241 | 0.216 | 0.171 | 0.16 | 0.268 | 0.222 | 0.197 | 0.268 | 0.241 | 0.973 | 0.995 | 1.04 | 1.05 | 1.05 | – | – | – | – | – |

From the supplement of paper PMC10307832
